± gives the expanded uncertainty stated by the source.
Settings: Liquid; for viscosity: Capillary tube (Ostwald / Ubbelohde) method; for mass density: Vibrating tube method

CCCCCO [pentan-1-ol]
Settings | mass density, 298.15 K [kg/m3] | mass density, 323.15 K [kg/m3] | viscosity, 298.15 K [mPa·s] | viscosity, 323.15 K [mPa·s]
1999 kPa | – | 794.19 ± 1.4 | – | 1.835 ± 0.043
2003 kPa | 811.93 ± 1.4 | – | 3.593 ± 0.083 | –
3999 kPa | 813.3 ± 1.4 | – | 3.661 ± 0.085 | –
4001 kPa | – | 795.77 ± 1.4 | – | 1.868 ± 0.043
6001 kPa | – | 797.32 ± 1.4 | – | 1.903 ± 0.044
6003 kPa | 814.64 ± 1.4 | – | 3.731 ± 0.086 | –
8000 kPa | – | 798.83 ± 1.4 | – | 1.937 ± 0.045
8005 kPa | 815.96 ± 1.4 | – | 3.799 ± 0.088 | –
9998 kPa | – | 800.31 ± 1.4 | – | 1.972 ± 0.046
10001 kPa | 817.26 ± 1.4 | – | 3.867 ± 0.089 | –
12999 kPa | – | 802.47 ± 1.4 | – | 2.025 ± 0.047
13000 kPa | 819.15 ± 1.4 | – | 3.972 ± 0.092 | –
16001 kPa | – | 804.56 ± 1.4 | – | 2.078 ± 0.048
16004 kPa | 821 ± 1.4 | – | 4.08 ± 0.094 | –
19002 kPa | – | 806.59 ± 1.4 | – | 2.134 ± 0.049
19006 kPa | 822.8 ± 1.4 | – | 4.19 ± 0.097 | –
22000 kPa | 824.56 ± 1.4 | – | 4.301 ± 0.099 | –
22001 kPa | – | 808.56 ± 1.4 | – | 2.19 ± 0.051
24998 kPa | 826.27 ± 1.4 | – | 4.41 ± 0.1 | –
25002 kPa | – | 810.48 ± 1.4 | – | 2.245 ± 0.052

O [water]
Settings | mass density [kg/m3] | viscosity [mPa·s]
293.36 K, 2061 kPa | 999.51 ± 0.7 | 0.9917 ± 0.009
293.36 K, 4085 kPa | 999.98 ± 0.7 | 0.9931 ± 0.009
293.37 K, 7118 kPa | 1001.28 ± 0.7 | 0.9928 ± 0.009
293.37 K, 26278 kPa | 1010.35 ± 0.71 | 0.9863 ± 0.0089
293.38 K, 11158 kPa | 1003.59 ± 0.7 | 0.9898 ± 0.009
293.38 K, 17210 kPa | 1006.18 ± 0.71 | 0.9897 ± 0.009
293.38 K, 20234 kPa | 1006.98 ± 0.71 | 0.988 ± 0.0089
293.38 K, 23255 kPa | 1008.25 ± 0.71 | 0.9883 ± 0.0089
313.08 K, 4076 kPa | 994.07 ± 0.7 | 0.6535 ± 0.0061
313.08 K, 7109 kPa | 995.47 ± 0.7 | 0.6538 ± 0.0061
313.08 K, 11150 kPa | 996.66 ± 0.7 | 0.6546 ± 0.0061
313.08 K, 14177 kPa | 997.99 ± 0.7 | 0.655 ± 0.0061
313.08 K, 17203 kPa | 999.9 ± 0.7 | 0.6552 ± 0.0061
313.08 K, 20228 kPa | 1000.99 ± 0.7 | 0.6557 ± 0.0061
313.08 K, 23250 kPa | 1001.91 ± 0.7 | 0.6559 ± 0.0061
313.08 K, 26271 kPa | 1003.18 ± 0.7 | 0.6562 ± 0.0061
313.08 K, 29788 kPa | 1004.77 ± 0.7 | 0.6586 ± 0.0061
313.09 K, 2053 kPa | 992.98 ± 0.7 | 0.6538 ± 0.0061
332.85 K, 14173 kPa | 989.5 ± 0.7 | 0.4707 ± 0.0045
332.85 K, 17195 kPa | 990.83 ± 0.7 | 0.4712 ± 0.0045
332.85 K, 20214 kPa | 991.48 ± 0.7 | 0.4725 ± 0.0045
332.85 K, 26252 kPa | 994.06 ± 0.7 | 0.4751 ± 0.0045
332.86 K, 4081 kPa | 984.88 ± 0.69 | 0.4685 ± 0.0045
332.86 K, 7113 kPa | 985.99 ± 0.69 | 0.4685 ± 0.0045
332.86 K, 11150 kPa | 988.22 ± 0.69 | 0.47 ± 0.0045
352.57 K, 4073 kPa | 973.51 ± 0.68 | 0.3574 ± 0.0035
352.58 K, 2044 kPa | 972.64 ± 0.68 | 0.3565 ± 0.0035
352.58 K, 7107 kPa | 975.4 ± 0.68 | 0.3582 ± 0.0035
352.59 K, 11142 kPa | 977 ± 0.69 | 0.3592 ± 0.0035
352.59 K, 14161 kPa | 977.85 ± 0.69 | 0.36 ± 0.0036
352.6 K, 17181 kPa | 979.13 ± 0.69 | 0.361 ± 0.0036
352.6 K, 20194 kPa | 980.96 ± 0.69 | 0.3617 ± 0.0036
352.6 K, 23203 kPa | 982.36 ± 0.69 | 0.3627 ± 0.0036
352.6 K, 26211 kPa | 983.69 ± 0.69 | 0.3638 ± 0.0036
352.6 K, 29715 kPa | 984.92 ± 0.69 | 0.3648 ± 0.0036

From the NIST ThermoML archive (doi:10.1021/acs.jced.5b00152)
